Experimental data reported in US10561606B2, “Injectable long-acting local anesthetic semi-solid gel formulations” (Mira Pharma Corporation, priority 2017, dated 2020).
Structures can show the parent of a compound that is named as a salt.

Legend:
[1] = BASF MSDS sheet; cited from earlier work
[2] = Solubility/loading of local anesthetic in oils, castor oil and semi-solid vehicle; assay type: physicochemical
sciatic nerve = conditions: cited from earlier work
[3] = cited from earlier work
[4] = limited by low solubility in the vehicle; cited from earlier work
[5] = in poly(lactic acid-co-castor oil), single injection

In the case of `CCCCN1CCCCC1C(=O)Nc1c(C)cccc1C` (stereo not drawn) [bupivacaine hydrochloride], the water solubility [1] is listed as 600 mg/mL.
For `CCCCN1CCCCC1C(=O)Nc1c(C)cccc1C` (stereo not drawn) [bupivacaine], the “solubility in corn oil” value [2] was 2.8 wt %, the “solubility in olive oil” value [2] was 2.5 wt % and the “solubility in sesame oil” value [2] was 3.0 wt %. The “solubility in typical vegetable oils” value [2] was “less than 3 wt %”, the “solubility in vegetable oil” value [2] was 2.5 wt % and the “sciatic nerve blockade prolonged to” value (sciatic nerve; 10% (w/v) in poly(sebacic-co-ricinoleic acid), from 8 hours) was 30 h. For the same molecule, the “duration of nerve block” value (sciatic nerve; in poly(lactic acid-co-castor oil) at 10% (w/v)) was 1 to 2 days, the “duration of sensory blockade” value (sciatic nerve; in poly(lactic acid-co-castor oil) at 15% (w/v)) was 96 h and the motor blockade (sciatic nerve; [5]) was 64 h. The sensory blockade (sciatic nerve; [5]) was 96 h, the “release of bupivacaine from the oil” value ([3]; fractionated coconut oil, in less than two hours, rotating dialysis cell) was 80% and the “stored bupivacaine released during one week” value ([3]; from poly(lactic acid-co-castor oil)) was 60%. The “incorporated drug released over one week in vitro” value ([3]; from poly(sebacic-co-ricinoleic acid)) was 70%.
For `Cc1cccc(C)c1NC(=O)C1CCCCN1C` (stereo not drawn) [mepivacaine], the “amount that can be loaded into polyorthoester vehicle” value [4] is given as “about 3 wt %”.
